Molecular target: T1, Alpha-1A adrenergic receptor (Homo sapiens, UniProt P35348)
T1 sequence (P35348 whole entry): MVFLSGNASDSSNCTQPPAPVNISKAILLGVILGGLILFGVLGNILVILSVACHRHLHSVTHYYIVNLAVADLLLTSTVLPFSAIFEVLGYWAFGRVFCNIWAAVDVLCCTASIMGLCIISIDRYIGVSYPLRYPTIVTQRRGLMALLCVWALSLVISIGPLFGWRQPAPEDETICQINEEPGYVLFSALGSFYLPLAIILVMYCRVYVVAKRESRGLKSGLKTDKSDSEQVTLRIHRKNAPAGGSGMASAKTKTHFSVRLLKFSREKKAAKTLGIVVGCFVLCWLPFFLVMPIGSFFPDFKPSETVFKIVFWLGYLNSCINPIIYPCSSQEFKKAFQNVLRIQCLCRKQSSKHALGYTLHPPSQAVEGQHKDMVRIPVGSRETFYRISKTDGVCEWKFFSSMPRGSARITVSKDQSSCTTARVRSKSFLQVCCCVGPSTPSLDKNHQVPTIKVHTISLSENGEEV
Assay: Inhibition of [3H]prazosin binding to human adrenergic alpha-1A receptor expressed in CHO-K1 cell membranes

SMILES: Clc1ccc(C2(Cn3ccnc3)OCC(CN3CCN(CCc4ccccc4)CC3)O2)c(Cl)c1 (centres undefined)
- Ki: 300 nM

SMILES: COc1ccccc1N1CCN(CCCNc2cc(O)nc(Nc3c(Cl)cccc3Cl)n2)CC1
- Ki: 3.6 nM

SMILES: Nc1ccc(C(=O)NCCN2CCC(c3cccc4[nH]ccc34)CC2)cc1
- Ki: 9.5 nM

SMILES: O=C(NCCCCN1CCN(c2csc3cc(F)ccc23)CC1)c1cnccn1
- Ki: 1.4 nM

Source: ChEMBL document CHEMBL1142661, “Structure-based drug discovery using GPCR homology modeling: successful virtual screening for antagonists of the alpha1A adrenergic receptor” (J Med Chem, 2005)
